# Reference: paper PMC10761730, “Serglycin secreted by late-stage nucleus pulposus cells is a biomarker of intervertebral disc degeneration” (Nature Communications, 2024)
# Molecular target: T1, Serglycin (SRGN) (Homo sapiens, UniProt P10124)
# T1 construct: endogenous protein in primary human nucleus pulposus cells; CETSA with Western blot read-out
# T1 sequence (P10124 28-158): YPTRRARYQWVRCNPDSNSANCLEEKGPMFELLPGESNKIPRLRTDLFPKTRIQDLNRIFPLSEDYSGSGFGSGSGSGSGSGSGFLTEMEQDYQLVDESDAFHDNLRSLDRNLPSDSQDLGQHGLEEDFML
# Assay: cellular thermal shift assay (CETSA), Western blot
# Assay type: cell-based
# Conditions: intact NPCs pretreated with DAP for 12 h, heated 3 min, freeze-thaw lysis; melt curve only in figure
smiles,measurement,value
O=c1ccc2ccc(O)c(O)c2o1 [Daphnetin],"cellular thermal shift assay (CETSA), Western blot",CETSA) of DAP and SRGN proteins also suggested that DAP could bind to SRGN
